In US12068150B2, “Substrate cleaning solution, and using the same, method for manufacturing cleaned substrate and method for manufacturing device” (Merck Patent GmbH, priority 2018, dated 2024):

Experiment: Evaluation of Solubility in 5.0 mass % ammonia water
Type: physicochemical
Details: 100 ppm and 1,000 ppm, shaken 3 hours, checked visually; for (B) Solubitity: component (B)
Protocol: The solubility can be evaluated by known methods. For example, it can be determined under the condition of 20-35° C. (more preferably 25±2° C.) by providing a flask charged with 100 ppm of the above (A) or the below-mentioned (B) in 5.0 mass % ammonia water, covering the flask with a cap, shaking for 3 hours in a shaker, and confirming whether (A) or (B) is dissolved or not. The shaking may be stirring. Dissolution can be also judged visually. […] In the present specification, soluble includes slightly soluble in a broad sense. In the present specification, the solubility becomes low in the order of insoluble, hardly soluble and soluble. In the present specification, slightly soluble is less soluble than soluble and more soluble than hardly soluble in a narrow sense.
4 mg of each component (for example, 2,2-bis (4-hydroxyphenyl) propane) to be used thereafter is put in a 50 mL sample bottle, and 5.0 mass % ammonia water is added to make the total amount to 40 g. Covering this with a cap, it is shaken and stirred for 3 hours. This gives a liquid having a component concentration of 100 ppm.
The same procedure as described above is carried out except that the amount of each component added is changed to 40 mg, and a liquid having a component concentration of 1,000 ppm is obtained. Their solubility is checked visually. Evaluation criteria are as shown below.
X: When the dissolution residue is confirmed at 100 ppm and 1,000 ppm, it is judged to be insoluble or hardly soluble.
Y: When the dissolution residue is not confirmed at 100 ppm but confirmed at 1,000 ppm, it is judged to be slightly soluble.
Z: When the dissolution residue is confirmed at neither 100 ppm nor 1,000 ppm, it is judged to be soluble.

SMILES	(A) Solubitity (component (A))	(B) Solubitity
Oc1ccc(C(c2ccccc2)(c2ccccc2)c2ccc(O)cc2)cc1 [A11, 4,4′-dihydroxytetraphenylmethane]	X (When the dissolution residue is confirmed at 100 ppm and 1,000 ppm, it is judged to be insoluble or hardly soluble.)	–
CC(C)(c1ccc(O)cc1)c1ccc(O)cc1 [B1, 2,2-bis(4-hydroxyphenyl)propane]	–	Y (When the dissolution residue is not confirmed at 100 ppm but confirmed at 1,000 ppm, it is judged to be slightly soluble.)
Oc1ccc(CC(c2ccc(O)cc2)(c2ccc(O)cc2)c2ccc(O)cc2)cc1 [B2, 1,2,2,2-tetrakis(4-hydroxyphenyl)ethane]	–	Z (When the dissolution residue is confirmed at neither 100 ppm nor 1,000 ppm, it is judged to be soluble.)
OC1CCCC(O)C1 (centres unmarked) [B3, 1,3-cyclohexanediol]	–	Z (When the dissolution residue is confirmed at neither 100 ppm nor 1,000 ppm, it is judged to be soluble.)
Cc1ccc(O)c(Cc2cc(C)cc(Cc3cc(C)ccc3O)c2O)c1 [B4, 2,6-bis[(2-hydroxy-5-methylphenyl)methyl]-4-methylphenol]	–	Y (When the dissolution residue is not confirmed at 100 ppm but confirmed at 1,000 ppm, it is judged to be slightly soluble.)
Cc1ccc(O)c(Cc2cc(C)ccc2O)c1 [B5, 2,2′-methylenebis(4-methylphenol)]	–	Z (When the dissolution residue is confirmed at neither 100 ppm nor 1,000 ppm, it is judged to be soluble.)
Oc1ccc(-c2ccc(O)cc2)cc1 [B6, 4,4′-dihydroxybiphenyl]	–	Y (When the dissolution residue is not confirmed at 100 ppm but confirmed at 1,000 ppm, it is judged to be slightly soluble.)
Oc1ccc2cc(O)ccc2c1 [B7, 2,6-naphthalenediol]	–	Y (When the dissolution residue is not confirmed at 100 ppm but confirmed at 1,000 ppm, it is judged to be slightly soluble.)
CC(C)(O)C#CC(C)(C)O [B8, 2,5-dimethyl-3-hexyne-2,5-diol]	–	Z (When the dissolution residue is confirmed at neither 100 ppm nor 1,000 ppm, it is judged to be soluble.)
CCC(C)(O)C#CC(C)(O)CC (centres unmarked) [B9, 3,6-dimethyl-4-octin-3,6-diol]	–	Z (When the dissolution residue is confirmed at neither 100 ppm nor 1,000 ppm, it is judged to be soluble.)
CC(C)(C)c1cc(O)c(C(C)(C)C)cc1O [B10, 2,5-di-tert-butylhydroquinone]	–	Z (When the dissolution residue is confirmed at neither 100 ppm nor 1,000 ppm, it is judged to be soluble.)
